Where two headings read alike, the source gives them in different places.
Experiments:
[1] = In vitro test on human Caco-2 cells, cellular transport A to B; assay type: in vitro ADME; settings: human, Caco-2, drug incubated and measured, A to B, 1 or 3 μM, read-out: Papp, the drug after incubation of the drug
Procedure: (§1) The cellular transport from A to B (Apical to Basolateral) of the phosphate compounds of formula (I) and the compounds of formula (I′) (corresponding drugs) is studied in human Caco-2 cells. Each compound is deposited apically at 1 or 3 μM (in duplicate) and then incubated for 120 minutes.
(§2) Several samples are taken during the experiment; • apically: immediately after deposition (t=0) and at 120 minutes • basolaterally: at the end of the experiment (120 minutes)
(§3) The concentrations of the phosphate compound (prodrug) and/or of its hydroxylated homologue (drug) are determined by liquid chromatography coupled with mass spectrometric detection (LC-MS/MS). The limit of quantification for both entities is 2 ng/mL.
(§4) The apparent permeability (Papp) and the predicted absorbed fraction (Fabs) in humans are calculated for the prodrug, for the drug after incubation of the prodrug and for the drug after incubation of the drug (Hubatsch et al, Nat Protoc. 2007; 2(9), 2111-2119).
(§5) The experiment yield, which corresponds to the ratio (in percent) of the total amount of compound found at the end of the experiment versus that incubated, is also calculated.

[2] = test system: human Caco-2 cells; assay: as above; assay type: in vitro ADME; settings: 120 minutes; for Yield (experiment yield), the drug after incubation of the prodrug / Fabs (predicted absorbed fraction in humans), the drug after incubation of the prodrug / Yield (experiment yield), compound measured: the prodrug itself / Papp, compound measured: the prodrug itself: prodrug incubated; for Yield (experiment yield), the drug after incubation of the prodrug / Fabs (predicted absorbed fraction in humans), the drug after incubation of the prodrug: corresponding drug measured; for Yield (experiment yield), compound measured: the prodrug itself: total amount found at the end versus incubated; for Papp, compound measured: the prodrug itself: deposited apically at 1 or 3 μM
Procedure: as §1, §2, §3, §4, §5

[3] = Solubility in aqueous medium buffered to physiological pH (phosphate 0.33M, pH 7.4); assay type: physicochemical
Procedure: The solubilities of the compounds were also measured in a medium buffered to physiological pH (cf. Table 3).

[4] = Pharmacokinetic profile / in vivo conversion after oral administration to SCID mice (plasma, LC-MS/MS); set-up: species or system female SCID mice; settings: aqueous formulation (1M sodium carbonate)
Procedure: The pharmacokinetic profile of the phosphate compounds of formula (I) is evaluated in a lipid formulation and in aqueous solution in female SCID mice. This is compared to the pharmacokinetic profile of compounds of formula (I′) in a lipid formulation. More specifically, 4-[{[3-(6-{[(3S)-3-(morpholin-4-ylmethyl)-3,4-dihydroisoquinolin-2(1H)-yl]-carbonyl}-1,3-benzodioxol-5-yl)-5,6,7,8-tetrahydroindolizin-1-yl]carbonyl}(phenyl)-amino]phenyl disodium phosphate (also referred to as the compound of Example 1) was tested and compared to N-(4-hydroxyphenyl)-3-{6-[((3S)-3-(4-morpholinylmethyl)-3,4-dihydro-2(1H)-isoquinolinyl)carbonyl]-1,3-benzodioxol-5-yl}-N-phenyl-5,6,7,8-tetrahydro-1-indolizine carboxamide (also referred to as the drug from Example 1).
The compound of Example 1 is prepared in a mixture of anhydrous ethanol/polyethylene glycol 300/water (10/40/50, v/v/v) intended for administration by the p.o. route. The study is carried out in 2 groups of SCID mice to which the compound of Example 1 is administered under the following conditions: • Group 1: 3 mg/kg p.o. (gavage, 10 mL/kg), • Group 2: 25 mg/kg p.o. (gavage, 10 mL/kg).
Blood samples are taken at the following points in time (3 samples per animal and 3 animals for each point in time): 0.25 hr, 0.5 hr, 1 hr, 2 hrs, 6 hrs and 24 hrs after oral administration.
The compound of Example 1 is also administered by the oral route in an aqueous medium to SCID mice, under the following conditions: • Group 1: 30 mg/kg p.o. dissolved in 1 mM sodium carbonate solution (gavage, 10 mL/kg), • Group 2: 100 mg/kg p.o. in water (gavage, 10 mL/kg).
Blood samples are taken at the following points in time (3 animals for each point in time and 1 sample per animal): 0.25 hr, 0.5 hr, 1 hr, 2 hrs, 4 hrs, 6 hrs and 24 hrs after oral administration.
For all formulations of the compound of Example 1, the blood thereby collected is centrifuged and the plasma is transferred to tubes containing 1M hydrochloric acid. The plasma concentrations of the phosphate compound (prodrug) and its hydroxylated homologue (drug) are determined simultaneously using a method of liquid chromatography coupled with mass spectrometric detection (TFC-LC-MS/MS). The limit of detection for both entities is 0.5 ng/mL.
The drug from Example 1 is prepared in a mixture of anhydrous ethanol/polyethylene glycol 300/water (10/40/50, v/v/v) intended for administration by the p.o. route. The study is carried out in several groups of SCID mice to which the drug from Example 1 is administered under the following conditions: • Group 1: 3 mg/kg p.o. (gavage, 10 mL/kg), • Group 2: 30 mg/kg p.o. (gavage, 10 mL/kg), • Group 3: 25 mg/kg p.o. (gavage, 10 mL/kg), • Group 4: 100 mg/kg p.o. (gavage, 10 mL/kg).
Blood samples are taken at the following points in time (3 animals for each point in time and 3 samples per animal for Groups 1-2 and 1 sample per animal for Groups 3 and 4): • p.o.: before administration and then 0.25 hr, 0.5 hr, 0.75 hr, 1 hr, 2 hrs, 4 hrs, 6 hrs, 8 hrs, 16 hrs and 24 hrs after oral administration at 3 and 30 mg/kg, • p.o.: 0.5 hr, 2 hrs, 6 hrs, 16 hrs and 24 hrs after oral administration at 25 mg/kg and 0.5 hr, 1 hr, 2 hrs, 6 hrs, 16 hrs, 30 hrs and 48 hrs after oral administration at 100 mg/kg.
The plasma from the blood samples collected after administration of the lipid formulations of the drug from the compound of Example 1 are analysed by liquid chromatography coupled with mass spectrometric detection. The limit of quantification of the drug from the compound of Example 1 is less than or equal to 0.5 ng/mL.
Non-compartmental pharmacokinetic analysis is carried out on the mean values of the plasma concentrations of the compounds tested. […]

[5] = Example 20 administered 25 mg/kg p.o.
[6] = phosphate 0.33M, pH = 7.4, 10 μM
[7] = phosphate 0.33M, pH = 7.4, 20 μM
[8] = phosphate 0.33M, pH = 7.4, 50 μM
[9] = phosphate 0.33M, pH = 7.4, 100 μM
[10] = Example 25 administered 3 mg/kg p.o.
[11] = Example 25 administered 25 mg/kg p.o.

Cc1c(C(=O)N(c2ccc(O)cc2)c2cc(C#N)n(C)c2)cc(-c2cc(Cl)ccc2C(=O)N2Cc3ccccc3C[C@H]2CN2CCOCC2)n1C [Drug from Example 21, 5-(5-Chloro-2-{[(3S)-3-(morpholin-4-ylmethyl)-3,4-dihydroisoquinolin-2(1H)-yl]carbonyl}phenyl)-N-(5-cyano-1-methyl-1H-pyrrol-3-yl)-N-(4-hydroxyphenyl)-1,2-dimethyl-1H-pyrrole-3-carboxamide]
Papp A→B at 120 min [1]: 0.27 ×10⁻⁶ cm/s
Yield (experiment yield), the drug after incubation of the drug ([2]; drug incubated and measured): Yield (%) = 82
Fabs (predicted absorbed fraction in humans), the drug after incubation of the drug ([2]; drug incubated and measured, A to B, 1 or 3 μM): Fabs (%) = 24

[2H]C([2H])([2H])n1cc(N(C(=O)c2cc(-c3cc(Cl)ccc3C(=O)N3Cc4ccccc4C[C@H]3CN3CCOCC3)n(C)c2C)c2ccc(OP(=O)([O-])[O-])cc2)cn1.[Na+].[Na+] [Example 19, 4-({[5-(5-Chloro-2-{[(3S)-3-(morpholin-4-ylmethyl)-3,4-dihydroisoquinolin-2(1H)-yl]carbonyl}phenyl)-1,2-dimethyl-1H-pyrrol-3-yl]carbonyl}[1-(trideuteriomethyl)-1H-pyrazol-4-yl]amino)phenyl disodium phosphate]
Solubility at 10 μM [3]: Soluble
Solubility at 20 μM [3]: Soluble
Solubility at 50 μM [3]: Soluble
Solubility at 100 μM [3]: Soluble

Cc1c(N(C(=O)c2cc(-c3cc(Cl)ccc3C(=O)N3Cc4ccccc4C[C@H]3CN3CCOCC3)n(C)c2C)c2ccc(OP(=O)([O-])[O-])cc2)cc(C#N)n1C.[Na+].[Na+] [Example 20, 4-[{[5-(5-Chloro-2-{[(3S)-3-(morpholin-4-ylmethyl)-3,4-dihydroisoquinolin-2(1H)-yl]carbonyl}phenyl)-1,2-dimethyl-1H-pyrrol-3-yl]carbonyl}(5-cyano-1,2-dimethyl-1H-pyrrol-3-yl)amino]phenyl disodium phosphate]
Cmax, compound measured: Example 20 ([4]; Example 20 administered 3 mg/kg p.o., BLQ: below the limit of quantification): Cmax (ng/mL) = BLQ
AUCt, compound measured: Example 20 [4, 5]: AUCt (ng · h/mL) = 106
Cmax, compound measured: Example 20 [4, 5]: Cmax (ng/mL) = 127
Tmax, compound measured: Example 20 [4, 5]: Tmax (h) = 0.25
Solubility at 10 μM [3, 6]: Soluble
Solubility at 20 μM [3, 7]: Soluble
Solubility at 50 μM [3, 8]: Soluble
Solubility at 100 μM [3, 9]: Soluble
Yield (experiment yield), the drug after incubation of the prodrug [2]: Yield (%) = 100
Fabs (predicted absorbed fraction in humans), the drug after incubation of the prodrug ([2]; A to B, 1 or 3 μM): Fabs (%) = 16
Yield (experiment yield), compound measured: the prodrug itself [2]: Yield (%) = 0.94

Cc1c(N(C(=O)c2cc(-c3cc(F)ccc3C(=O)N3Cc4ccccc4C[C@H]3CN3CCOCC3)n(C)c2C)c2ccc(OP(=O)([O-])[O-])cc2)cc(C#N)n1C.[Na+].[Na+] [Example 25, 4-[(5-Cyano-1,2-dimethyl-1H-pyrrol-3-yl){[5-(5-fluoro-2-{[(3S)-3-(morpholin-4-ylmethyl)-3,4-dihydroisoquinolin-2(1H)-yl]carbonyl}phenyl)-1,2-dimethyl-1H-pyrrol-3-yl]carbonyl}amino]phenyl disodium phosphate]
AUCt, compound measured: Example 25 [4, 10]: AUCt (ng · h/mL) = 14
Cmax, compound measured: Example 25 [4, 10]: Cmax (ng/mL) = 17
Tmax, compound measured: Example 25 [4, 10]: Tmax (h) = 1.0
AUCt, compound measured: Example 25 [4, 11]: AUCt (ng · h/mL) = 114
Cmax, compound measured: Example 25 [4, 11]: Cmax (ng/mL) = 106
Tmax, compound measured: Example 25 [4, 11]: Tmax (h) = 1.0
Solubility at 10 μM [3, 6]: Soluble
Solubility at 20 μM [3, 7]: Soluble
Solubility at 50 μM [3, 8]: Soluble
Solubility at 100 μM [3, 9]: Soluble
Yield (experiment yield), the drug after incubation of the prodrug [2]: Yield (%) = 48
Fabs (predicted absorbed fraction in humans), the drug after incubation of the prodrug ([2]; A to B, 1 or 3 μM): Fabs (%) = 20
Yield (experiment yield), compound measured: the prodrug itself [2]: Yield (%) = 33

[2H]C([2H])([2H])n1cc(N(C(=O)c2cc(-c3cc(Cl)ccc3C(=O)N3Cc4ccccc4C[C@H]3CN3CCOCC3)n(C)c2C)c2ccc(O)cc2)cn1 [Drug from Example 19, 5-(5-Chloro-2-{[(3S)-3-(morpholin-4-ylmethyl)-3,4-dihydroisoquinolin-2(1H)-yl]carbonyl}phenyl)-N-(4-hydroxyphenyl)-1,2-dimethyl-N-[1-(trideuteriomethyl)-1H-pyrazol-4-yl]-1H-pyrrole-3-carboxamide]
Solubility at 10 μM [3, 6]: Soluble
Solubility at 20 μM [3, 7]: Soluble
Solubility at 50 μM [3, 8]: Soluble
Solubility at 100 μM [3, 9]: Insoluble

C[C@@H]1Cc2ccccc2CN1C(=O)c1cc2c(cc1-c1cc(C(=O)N(c3ccc(OP(=O)([O-])[O-])cc3)c3cnc4c(ccn4C)c3)c3ccccn13)OCO2.[Na+].[Na+] [Example 4, 4-[{[3-(6-{[(3R)-3-Methyl-3,4-dihydroisoquinolin-2(1H)-yl]carbonyl}-1,3-benzodioxol-5-yl)indolizin-1-yl]carbonyl}(1-methyl-1H-pyrrolo[2,3-b]pyridin-5-yl)amino]phenyl disodium phosphate]
Yield (experiment yield), the drug after incubation of the prodrug [2]: Yield (%) = 38
Fabs (predicted absorbed fraction in humans), the drug after incubation of the prodrug ([2]; A to B, 1 or 3 μM): Fabs (%) = 69
Papp, compound measured: the prodrug itself ([2]; A to B): Papp (10^−6 cm/s) = 0.33
Yield (experiment yield), compound measured: the prodrug itself [2]: Yield (%) = 1.3

C[C@@H]1Cc2ccccc2CN1C(=O)c1cc2c(cc1-c1cc(C(=O)N(c3ccncc3)c3ccc(OP(=O)([O-])[O-])cc3)c3ccccn13)OCO2.[Na+].[Na+] [Example 5, 4-[{[3-(6-{[(3R)-3-Methyl-3,4-dihydroisoquinolin-2(1H)-yl]carbonyl}-1,3-benzodioxol-5-yl)indolizin-1-yl]carbonyl}(pyridin-4-yl)amino]phenyl disodium phosphate]
Yield (experiment yield), the drug after incubation of the prodrug [2]: Yield (%) = 78
Fabs (predicted absorbed fraction in humans), the drug after incubation of the prodrug ([2]; A to B, 1 or 3 μM): Fabs (%) = 86
Papp, compound measured: the prodrug itself ([2]; A to B): Papp (10^−6 cm/s) = 0.26
Yield (experiment yield), compound measured: the prodrug itself [2]: Yield (%) = 1.2
